Laboratory results reported in patent US20260345771A1, “THERAPY COMPRISING ANTI-CD19 ANTIBODY AND EZH2 MODULATORS” (Incyte Corporation, priority 2022, published 2026).

B1: tafasitamab: humanized monoclonal antibody that targets the antigen CD19, engineered in the IgG Fc-region to enhance ADCC (antibody, chains of the INN, looked up)
heavy: EVQLVESGGGLVKPGGSLKLSCAASGYTFTSYVMHWVRQAPGKGLEWIGYINPYNDGTKYNEKFQGRVTISSDKSISTAYMELSSLRSEDTAMYYCARGTYYYGTRVFDYWGQGTLVTVSSASTKGPSVFPLAPSSKSTSGGTAALGCLVKDYFPEPVTVSWNSGALTSGVHTFPAVLQSSGLYSLSSVVTVPSSSLGTQTYICNVNHKPSNTKVDKKVEPKSCDKTHTCPPCPAPELLGGPDVFLFPPKPKDTLMISRTPEVTCVVVDVSHEDPEVQFNWYVDGVEVHNAKTKPREEQFNSTFRVVSVLTVVHQDWLNGKEYKCKVSNKALPAPEEKTISKTKGQPREPQVYTLPPSREEMTKNQVSLTCLVKGFYPSDIAVEWESNGQPENNYKTTPPMLDSDGSFFLYSKLTVDKSRWQQGNVFSCSVMHEALHNHYTQKSLSLSPG
light: DIVMTQSPATLSLSPGERATLSCRSSKSLQNVNGNTYLYWFQQKPGQSPQLLIYRMSNLNSGVPDRFSGSGSGTEFTLTISSLEPEDFAVYYCMQHLEYPITFGAGTKLEIKRTVAAPSVFIFPPSDEQLKSGTASVVCLLNNFYPREAKVQWKVDNALQSGNSQESVTEQDSKDSTYSLSSTLTLSKADYEKHKVYACEVTHQGLSSPVTKSFNRGEC

Columns and labels:
[1] = test system: SU-DHL-6 cells; assay: CellTiter-Glo (CTG) viability assay, SU-DHL-6; assay type: cell-based; conditions: Homo sapiens, 168 h; SU-DHL-6, 7 days, compound alone
Procedure: (§1) A panel of 6 lymphoma cell lines was included in the analysis (5 DLBCL and 1 Burkitt lymphoma). All cell lines were cultured in RPMI 1640 medium (Gibco) supplemented with 10%-20% FCS (Sigma) at 37 °C in 5% CO2.
(§2) To analyze direct cytotoxic and anti-proliferative effects on target cells, cell viability assays were performed using the CellTiter-Glo Kit (Promega), a luminescence assay for determination of viable cell number based on quantification of adenosine triphosphate (ATP) levels. […] Cell densities were adjusted at days 3 and 7 during the assay to avoid overgrowth. The assay was performed in clear 48- and 96-F-well bottom plates in a final volume of 1 mL or 200 μL, respectively, in a cell incubator at 37 °C and 5% CO2. In each experiment, all test conditions were performed in triplicates.
(§3) Cell viability was analyzed according to the manufacturer's protocol using the Tecan Infinite F500 plate reader. The relative viable cell count was calculated from the measured relative luminescence units (RLU) with the following equation: […]
(§4) For graphical illustration and IC50 determination, the mean values of triplicates (viability assay) or duplicates (CD19 expression) of the individual experiments were imported into GraphPad Prism software (version 8). […] IC50 curves were determined applying a non-linear regression curve fit model (sigmoidal dose response, variable slope).

[2] = test system: SU-DHL-4 cells; assay: CellTiter-Glo (CTG) viability assay, SU-DHL-4; assay type: cell-based; conditions: Homo sapiens, SU-DHL-4, 168 h
Procedure: as §1, §2, §3, §4

[3] = test system: WSU-DLCL2 tumor; assay: Tumor growth in WSU-DLCL2 tumor bearing CB17-SCID mice; assay type: in vivo
Procedure: The in vivo study was carried out in WSU-DLCL2 tumor bearing CB17-SCID mice. 4×10^6 WSU-DLCL2 cells (DLBCL cell line) per animal were implanted with matrigel (1:1) s.c. into the left flank of 6-8 weeks old female CB17-SCID mice. On study day 17, when a mean tumor volume of approximately 100 mm^3 was reached, animals were randomly allocated into treatment groups with 8 mice per group and treatment was started. Treatment was applied every day p.o. at 35 mg/kg or 50 mg/kg for Compound 1 (application volume: 10 mL/kg; formulation buffer: 20% propylene glycol, 10% Solutol HS15, 70% phthalate buffer) and biweekly i.v. at 3 mg/kg or 10 mg/kg for tafasitamab (application volume: 5 mL/kg; formulation buffer: PBS). Tumor volume and body weight were measured twice weekly. Mice were sacrificed when reaching a tumor volume >1500 mm^3 or latest at study end on day 69 after tumor cell implantation. Mean tumor growth curves were calculated using GraphPad Prism software (version 8.4.3).
The proof of concept in vivo study was performed in WSU-DLCL2 tumor bearing CB17-SCID mice.

Molecule	IC50 [1]	IC50 [2]	tumor growth inhibition ([3]; monotherapy 3 mg/kg i.v. BIW)	tumor growth inhibition ([3]; monotherapy 10 mg/kg i.v. BIW)
COC1CN([C@H]2CC[C@H]([C@@]3(C)Oc4c(Cl)cc(C(=O)NCc5c(SC)cc(C)[nH]c5=O)c(C)c4O3)CC2)C1 [Compound 1]	0.0038 µM	0.0171 µM	–	–
B1	–	–	did not reveal any tumor growth inhibition	did not reveal any tumor growth inhibition
